What was measured:
[1] = biological target: Muscarinic acetylcholine receptor M1 (Homo sapiens, UniProt P11229); experiment: (§1) Cross screening panel
[2] = biological target: Muscarinic acetylcholine receptor M2 (Homo sapiens, UniProt P08172); experiment: as §1
[3] = biological target: Nuclear receptor subfamily 1 group I member 2 (Homo sapiens, UniProt O75469); experiment: as §1
[4] = biological target: Phosphatidylinositol 4,5-bisphosphate 3-kinase catalytic subunit gamma isoform (Homo sapiens, UniProt P48736); experiment: as §1
[5] = biological target: Potassium voltage-gated channel subfamily A member 5 (Homo sapiens, UniProt P22460); experiment: as §1
[6] = biological target: Prostaglandin G/H synthase 2 (Homo sapiens, UniProt P35354); experiment: as §1
[7] = biological target: Sodium channel protein type 5 subunit alpha (Homo sapiens, UniProt Q14524); experiment: as §1
[8] = biological target: Sodium-dependent noradrenaline transporter (Homo sapiens, UniProt P23975); experiment: as §1
[9] = biological target: Sodium-dependent serotonin transporter (Homo sapiens, UniProt P31645); experiment: as §1
[10] = biological target: Solute carrier organic anion transporter family member 1B1 (Homo sapiens, UniProt Q9Y6L6); experiment: as §1
[11] = biological target: Substance-P receptor (Homo sapiens, UniProt P25103); experiment: as §1
Chain of Substance-P receptor (P25103 whole entry): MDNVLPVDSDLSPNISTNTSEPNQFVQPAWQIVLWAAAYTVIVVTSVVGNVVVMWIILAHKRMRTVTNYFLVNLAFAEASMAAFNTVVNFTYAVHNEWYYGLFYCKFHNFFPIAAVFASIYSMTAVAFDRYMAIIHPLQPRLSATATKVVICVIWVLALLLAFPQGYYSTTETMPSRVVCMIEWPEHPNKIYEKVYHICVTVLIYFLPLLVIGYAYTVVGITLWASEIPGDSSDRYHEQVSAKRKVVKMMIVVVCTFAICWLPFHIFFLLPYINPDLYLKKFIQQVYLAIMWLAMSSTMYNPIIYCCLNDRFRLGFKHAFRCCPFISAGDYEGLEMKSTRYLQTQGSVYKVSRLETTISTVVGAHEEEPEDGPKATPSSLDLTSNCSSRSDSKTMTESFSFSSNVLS

[12] = biological target: Tyrosine-protein kinase Lck (Homo sapiens, UniProt P06239); experiment: as §1
[13] = biological target: Vasopressin V1a receptor (Homo sapiens, UniProt P37288); experiment: as §1
[14] = biological target: Voltage-dependent L-type calcium channel subunit alpha-1C (Homo sapiens, UniProt Q13936); experiment: as §1
[15] = biological target: cGMP-inhibited 3',5'-cyclic phosphodiesterase 3A (Homo sapiens, UniProt Q14432); experiment: as §1
[16] = biological target: GABA-A receptor; anion channel; experiment: as §1; type: protein-complex assay
[17] = biological target: Voltage-gated potassium channel, IKs; KCNQ1(Kv7.1)/KCNE1(MinK) (Homo sapiens, UniProt P15382+P51787); experiment: as §1; type: protein-complex assay
Chain of Voltage-gated potassium channel, IKs; KCNQ1(Kv7.1)/KCNE1(MinK) (P51787 whole entry): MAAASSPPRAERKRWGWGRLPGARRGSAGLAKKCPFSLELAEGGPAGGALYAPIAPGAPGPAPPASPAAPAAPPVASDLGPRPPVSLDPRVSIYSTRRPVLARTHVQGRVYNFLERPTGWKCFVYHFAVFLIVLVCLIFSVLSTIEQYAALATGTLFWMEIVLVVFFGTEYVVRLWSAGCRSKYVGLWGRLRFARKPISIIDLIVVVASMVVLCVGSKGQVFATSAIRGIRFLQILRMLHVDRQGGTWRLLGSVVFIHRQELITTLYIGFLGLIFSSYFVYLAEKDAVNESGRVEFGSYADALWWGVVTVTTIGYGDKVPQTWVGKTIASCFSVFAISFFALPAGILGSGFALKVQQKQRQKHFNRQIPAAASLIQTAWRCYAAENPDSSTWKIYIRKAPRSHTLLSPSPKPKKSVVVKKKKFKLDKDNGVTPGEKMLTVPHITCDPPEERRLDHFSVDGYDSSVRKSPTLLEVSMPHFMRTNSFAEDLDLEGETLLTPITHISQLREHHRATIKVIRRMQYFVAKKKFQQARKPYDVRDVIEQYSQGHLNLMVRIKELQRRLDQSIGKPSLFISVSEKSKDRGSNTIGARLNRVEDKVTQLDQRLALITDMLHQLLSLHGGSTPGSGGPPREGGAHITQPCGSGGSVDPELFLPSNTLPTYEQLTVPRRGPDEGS

[18] = biological target: GABA-A receptor; anion channel; experiment: as §1; type: protein-complex assay; remark: listed apart in the source
[19] = biological target: 5-hydroxytryptamine receptor 1A (Homo sapiens) (UniProt P08908); details: Compound concentration 10.0 uM
Chain of 5-hydroxytryptamine receptor 1A (Homo sapiens) (P08908 whole entry): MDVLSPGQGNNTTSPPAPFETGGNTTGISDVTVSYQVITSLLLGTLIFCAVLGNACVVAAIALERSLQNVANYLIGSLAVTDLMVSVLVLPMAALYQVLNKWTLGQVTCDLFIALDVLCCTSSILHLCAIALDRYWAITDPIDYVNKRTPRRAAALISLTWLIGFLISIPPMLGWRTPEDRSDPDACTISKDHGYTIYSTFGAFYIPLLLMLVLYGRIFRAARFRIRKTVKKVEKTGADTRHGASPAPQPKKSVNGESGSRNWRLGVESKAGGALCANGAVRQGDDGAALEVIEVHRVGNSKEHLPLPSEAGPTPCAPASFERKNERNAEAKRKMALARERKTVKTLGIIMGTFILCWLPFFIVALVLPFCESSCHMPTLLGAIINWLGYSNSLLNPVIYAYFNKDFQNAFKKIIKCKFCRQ

[20] = biological target: 5-hydroxytryptamine receptor 1B (Homo sapiens, UniProt P28222); details: Compound concentration 10.0 uM
[21] = biological target: 5-hydroxytryptamine receptor 2A (Homo sapiens, UniProt P28223); details: Compound concentration 10.0 uM
[22] = biological target: 5-hydroxytryptamine receptor 2B (Homo sapiens) (UniProt P41595); details: Compound concentration 10.0 uM
[23] = biological target: 5-hydroxytryptamine receptor 2C (Homo sapiens) (UniProt P28335); details: Compound concentration 10.0 uM
Chain of 5-hydroxytryptamine receptor 2C (Homo sapiens) (P28335 whole entry): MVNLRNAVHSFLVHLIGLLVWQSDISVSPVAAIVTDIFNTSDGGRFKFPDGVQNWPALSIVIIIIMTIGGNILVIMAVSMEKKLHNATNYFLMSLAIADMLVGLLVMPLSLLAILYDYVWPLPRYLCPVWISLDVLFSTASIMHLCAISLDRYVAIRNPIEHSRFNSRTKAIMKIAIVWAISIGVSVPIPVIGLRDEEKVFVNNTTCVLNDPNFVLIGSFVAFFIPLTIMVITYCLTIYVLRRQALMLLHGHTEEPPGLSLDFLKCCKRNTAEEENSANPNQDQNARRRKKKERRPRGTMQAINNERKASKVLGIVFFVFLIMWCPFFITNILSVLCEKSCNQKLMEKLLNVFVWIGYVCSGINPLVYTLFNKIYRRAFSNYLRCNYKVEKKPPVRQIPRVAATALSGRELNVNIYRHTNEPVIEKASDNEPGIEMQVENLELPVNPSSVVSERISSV

[24] = biological target: 5-hydroxytryptamine receptor 3A (Homo sapiens) (UniProt P46098); details: Compound concentration 10.0 uM
[25] = biological target: 5-hydroxytryptamine receptor 5A (Homo sapiens) (UniProt P47898); details: Compound concentration 10.0 uM
[26] = biological target: 5-hydroxytryptamine receptor 6 (Homo sapiens) (UniProt P50406); details: Compound concentration 10.0 uM
[27] = biological target: 5-hydroxytryptamine receptor 7 (Homo sapiens) (UniProt P34969); details: Compound concentration 10.0 uM
[28] = biological target: D(1A) dopamine receptor (Homo sapiens, UniProt P21728); details: Compound concentration 10.0 uM
[29] = biological target: D(2) dopamine receptor (Homo sapiens, UniProt P14416); details: Compound concentration 10.0 uM
[30] = biological target: D(3) dopamine receptor (Homo sapiens) (UniProt P35462); details: Compound concentration 10.0 uM
[31] = biological target: D(4) dopamine receptor (Homo sapiens) (UniProt P21917); details: Compound concentration 10.0 uM
Chain of D(4) dopamine receptor (Homo sapiens) (P21917 whole entry): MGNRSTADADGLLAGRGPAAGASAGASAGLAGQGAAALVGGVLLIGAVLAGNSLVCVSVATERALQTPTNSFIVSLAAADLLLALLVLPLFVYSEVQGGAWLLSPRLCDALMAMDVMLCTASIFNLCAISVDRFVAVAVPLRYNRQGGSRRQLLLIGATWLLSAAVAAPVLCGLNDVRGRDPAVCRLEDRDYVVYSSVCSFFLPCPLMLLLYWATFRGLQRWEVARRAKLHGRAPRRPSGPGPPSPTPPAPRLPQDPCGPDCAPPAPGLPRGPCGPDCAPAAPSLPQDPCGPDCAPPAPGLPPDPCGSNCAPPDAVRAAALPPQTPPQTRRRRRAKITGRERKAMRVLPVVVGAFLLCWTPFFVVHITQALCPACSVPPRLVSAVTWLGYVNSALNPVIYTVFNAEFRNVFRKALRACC

[32] = biological target: D(1B) dopamine receptor (Homo sapiens) (UniProt P21918); details: Compound concentration 10.0 uM
[33] = biological target: Mu-type opioid receptor (Homo sapiens, UniProt P35372); details: Compound concentration 10.0 uM
Chain of Mu-type opioid receptor (P35372 whole entry): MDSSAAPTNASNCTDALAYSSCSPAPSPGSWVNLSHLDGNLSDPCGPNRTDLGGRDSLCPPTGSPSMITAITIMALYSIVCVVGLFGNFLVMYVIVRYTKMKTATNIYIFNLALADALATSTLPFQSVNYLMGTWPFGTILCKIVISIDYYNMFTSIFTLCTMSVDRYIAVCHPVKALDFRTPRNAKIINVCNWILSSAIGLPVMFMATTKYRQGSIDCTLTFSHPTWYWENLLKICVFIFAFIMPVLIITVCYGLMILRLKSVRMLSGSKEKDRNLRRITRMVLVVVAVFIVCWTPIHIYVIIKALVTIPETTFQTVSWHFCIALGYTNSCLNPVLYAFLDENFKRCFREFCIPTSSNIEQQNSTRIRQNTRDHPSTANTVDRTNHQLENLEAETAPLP

[34] = biological target: Delta-type opioid receptor (Homo sapiens) (UniProt P41143); details: Compound concentration 10.0 uM
Chain of Delta-type opioid receptor (Homo sapiens) (P41143 whole entry): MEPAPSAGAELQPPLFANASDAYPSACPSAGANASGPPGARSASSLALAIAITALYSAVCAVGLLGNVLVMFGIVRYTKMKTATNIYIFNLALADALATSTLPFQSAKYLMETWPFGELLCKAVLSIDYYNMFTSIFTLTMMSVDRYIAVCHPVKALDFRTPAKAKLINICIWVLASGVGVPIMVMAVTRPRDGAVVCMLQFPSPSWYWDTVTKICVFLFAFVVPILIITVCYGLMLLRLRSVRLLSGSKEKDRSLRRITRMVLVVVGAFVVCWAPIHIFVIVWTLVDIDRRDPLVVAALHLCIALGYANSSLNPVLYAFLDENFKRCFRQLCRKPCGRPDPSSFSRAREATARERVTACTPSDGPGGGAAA

[35] = biological target: Kappa-type opioid receptor (Homo sapiens, UniProt P41145); details: Compound concentration 10.0 uM
[36] = biological target: T1, GABA-A receptor; anion channel (Rattus norvegicus) (UniProt O09028+P15431+P18506+P18508+P19969+P20236+P23574+P23576+P28471+P28473+P30191+P62813+P63079+P63138+Q91ZM7+Q9ES14); details: Compound concentration 10.0 uM
[37] = biological target: Histamine H2 receptor (Homo sapiens) (UniProt P25021); details: Compound concentration 10.0 uM
Chain of Histamine H2 receptor (Homo sapiens) (P25021 whole entry): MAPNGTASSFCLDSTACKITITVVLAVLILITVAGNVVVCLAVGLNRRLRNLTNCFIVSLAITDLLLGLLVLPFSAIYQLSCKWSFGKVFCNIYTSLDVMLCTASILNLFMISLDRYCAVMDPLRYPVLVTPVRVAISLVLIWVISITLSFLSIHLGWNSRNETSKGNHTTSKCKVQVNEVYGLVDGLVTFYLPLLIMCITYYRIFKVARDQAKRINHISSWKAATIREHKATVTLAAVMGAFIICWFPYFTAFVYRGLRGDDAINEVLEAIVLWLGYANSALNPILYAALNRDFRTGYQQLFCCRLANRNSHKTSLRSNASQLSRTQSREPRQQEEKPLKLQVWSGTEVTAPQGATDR

[38] = biological target: Histamine H3 receptor (Homo sapiens) (UniProt Q9Y5N1); details: Compound concentration 10.0 uM
[39] = biological target: Histamine H4 receptor (Homo sapiens) (UniProt Q9H3N8); details: Compound concentration 10.0 uM
[40] = biological target: Alpha-1A adrenergic receptor (Homo sapiens) (UniProt P35348); details: Compound concentration 10.0 uM
[41] = biological target: Alpha-1B adrenergic receptor (Homo sapiens) (UniProt P35368); details: Compound concentration 10.0 uM
[42] = biological target: Alpha-2A adrenergic receptor (Homo sapiens) (UniProt P08913); details: Compound concentration 10.0 uM
[43] = biological target: Alpha-2B adrenergic receptor (Homo sapiens) (UniProt P18089); details: Compound concentration 10.0 uM
[44] = biological target: Alpha-2C adrenergic receptor (Homo sapiens) (UniProt P18825); details: Compound concentration 10.0 uM
Chain of Alpha-2C adrenergic receptor (Homo sapiens) (P18825 whole entry): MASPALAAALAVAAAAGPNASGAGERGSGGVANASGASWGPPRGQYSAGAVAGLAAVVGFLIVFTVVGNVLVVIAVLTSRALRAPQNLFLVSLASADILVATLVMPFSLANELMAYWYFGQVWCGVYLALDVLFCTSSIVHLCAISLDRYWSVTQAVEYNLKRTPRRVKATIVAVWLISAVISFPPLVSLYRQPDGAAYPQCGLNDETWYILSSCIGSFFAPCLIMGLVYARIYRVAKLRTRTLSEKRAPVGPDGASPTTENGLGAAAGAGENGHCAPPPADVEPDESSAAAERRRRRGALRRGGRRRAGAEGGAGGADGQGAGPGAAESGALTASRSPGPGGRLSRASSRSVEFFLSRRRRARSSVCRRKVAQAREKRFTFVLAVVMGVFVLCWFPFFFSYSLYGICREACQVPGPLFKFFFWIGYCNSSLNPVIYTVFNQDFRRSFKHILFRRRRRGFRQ

[45] = biological target: Beta-1 adrenergic receptor (Homo sapiens) (UniProt P08588); details: Compound concentration 10.0 uM
[46] = biological target: Beta-2 adrenergic receptor (Homo sapiens, UniProt P07550); details: Compound concentration 10.0 uM
[47] = biological target: Muscarinic acetylcholine receptor M2 (Homo sapiens) (UniProt P08172); details: Compound concentration 10.0 uM
Chain of Muscarinic acetylcholine receptor M2 (Homo sapiens) (P08172 whole entry): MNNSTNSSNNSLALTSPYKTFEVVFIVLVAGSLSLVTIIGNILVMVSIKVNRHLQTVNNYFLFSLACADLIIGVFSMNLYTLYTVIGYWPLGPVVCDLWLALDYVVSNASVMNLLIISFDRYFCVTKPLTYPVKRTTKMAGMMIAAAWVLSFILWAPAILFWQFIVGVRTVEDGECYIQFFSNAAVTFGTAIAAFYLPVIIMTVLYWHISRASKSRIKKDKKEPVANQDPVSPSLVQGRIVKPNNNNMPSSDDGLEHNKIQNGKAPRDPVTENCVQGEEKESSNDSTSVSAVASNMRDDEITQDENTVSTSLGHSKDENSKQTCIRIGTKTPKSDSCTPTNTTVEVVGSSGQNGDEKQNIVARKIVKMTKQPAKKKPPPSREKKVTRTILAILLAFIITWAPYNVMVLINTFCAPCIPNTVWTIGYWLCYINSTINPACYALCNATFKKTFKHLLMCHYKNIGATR

[48] = biological target: Muscarinic acetylcholine receptor M3 (Homo sapiens) (UniProt P20309); details: Compound concentration 10.0 uM
[49] = biological target: Muscarinic acetylcholine receptor M4 (Homo sapiens) (UniProt P08173); details: Compound concentration 10.0 uM
[50] = biological target: Muscarinic acetylcholine receptor M5 (Homo sapiens) (UniProt P08912); details: Compound concentration 10.0 uM
[51] = biological target: Beta-3 adrenergic receptor (Homo sapiens) (UniProt P13945); details: Compound concentration 10.0 uM
[52] = biological target: T1, GABA-A receptor; anion channel (Rattus norvegicus); details: Compound concentration 10.0 uM; remark: listed apart in the source
[53] = species on record: Rattus norvegicus; details: Compound concentration 10.0 uM
[54] = biological target: Alpha-1D adrenergic receptor (Homo sapiens) (UniProt P25100); details: Compound concentration 10.0 uM
[55] = biological target: Sigma intracellular receptor 2 (Homo sapiens) (UniProt Q5BJF2); details: Compound concentration 10.0 uM
Chain of Sigma intracellular receptor 2 (Homo sapiens) (Q5BJF2 whole entry): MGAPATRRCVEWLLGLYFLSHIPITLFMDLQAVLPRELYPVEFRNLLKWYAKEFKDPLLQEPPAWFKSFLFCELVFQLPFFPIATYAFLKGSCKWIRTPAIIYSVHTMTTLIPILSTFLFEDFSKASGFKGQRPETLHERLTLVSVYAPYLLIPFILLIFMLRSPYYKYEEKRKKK

Chain of Muscarinic acetylcholine receptor M2 (P08172 whole entry): as the sequence (P08172 whole entry) above

SMILES: CNC(=O)c1cc(C(=O)NC2CC2)cn(Cc2ccccc2)c1=O [GSK620]
- IC50 [1]: > 50.1 µM
- EC50 [2]: > 50.1 µM
- IC50 [2]: > 50.1 µM
- EC50 [3]: > 50.1 µM
- IC50 [4]: > 31.6 µM
- IC50 [5]: > 50.1 µM
- IC50 [6]: > 100 µM
- IC50 [7]: > 100 µM
- IC50 [8]: > 100 µM
- IC50 [9]: > 100 µM
- IC50 [10]: > 50.1 µM
- IC50 [11]: > 25.1 µM
- IC50 [12]: > 31.6 µM
- IC50 [13]: > 50.1 µM
- IC50 [14]: 79.4 µM
- IC50 [15]: > 100 µM
- pEC50 [16]: < 4
- pIC50 [16]: < 4
- IC50 [17]: > 25.1 µM
- pEC50 [18]: < 4
- inhibition [19]: 6.03%
- inhibition [20]: -3.67%
- inhibition [21]: -8.9%
- inhibition [22]: 16.5%
- inhibition [23]: 32.1%
- inhibition [24]: 14.3%
- inhibition [25]: -4.41%
- inhibition [26]: 10.9%
- inhibition [27]: 13.6%
- inhibition [28]: 6.94%
- inhibition [29]: -2.98%
- inhibition [30]: 1.54%
- inhibition [31]: 6.96%
- inhibition [32]: 18.6%
- inhibition [33]: 13.5%
- inhibition [34]: -2.78%
- inhibition [35]: 39.9%
- inhibition [36]: 8.55%
- inhibition [37]: -9.14%
- inhibition [38]: -8.16%
- inhibition [39]: 16.1%
- inhibition [40]: -0.64%
- inhibition [41]: 7.27%
- inhibition [42]: -4.53%
- inhibition [43]: 5.2%
- inhibition [44]: 0.69%
- inhibition [45]: -6.19%
- inhibition [46]: 16.5%
- inhibition [47]: 13.2%
- inhibition [48]: 21.4%
- inhibition [49]: 0.52%
- inhibition [50]: -5.05%
- inhibition [51]: 18.6%
- inhibition [52]: 28.2%
- inhibition [53]: 7.71%
- inhibition [54]: 2.36%
- inhibition [55]: 7.83%

Reference: ChEMBL document CHEMBL4630909 (2021)
